From article PMC9897788, “Design, synthesis and cytotoxic evaluation of novel bis-thiazole derivatives as preferential Pim1 kinase inhibitors with in vivo and in silico study” (Journal of Enzyme Inhibition and Medicinal Chemistry, 2023)
pIC50: −log10 of the molar value. Entries after “also recorded” stand apart in the source; their conditions may differ.

Experiments:
Pim1 kinase = target: T1, Pim1 kinase (Homo sapiens, UniProt P11309); experiment: In vitro Pim1 kinase inhibition assay (ADP-Glo); assay type: biochemical; details: n = 3
T1 construct: purchased Promega Corporation, Madison, WI
T1 sequence (P11309 whole entry): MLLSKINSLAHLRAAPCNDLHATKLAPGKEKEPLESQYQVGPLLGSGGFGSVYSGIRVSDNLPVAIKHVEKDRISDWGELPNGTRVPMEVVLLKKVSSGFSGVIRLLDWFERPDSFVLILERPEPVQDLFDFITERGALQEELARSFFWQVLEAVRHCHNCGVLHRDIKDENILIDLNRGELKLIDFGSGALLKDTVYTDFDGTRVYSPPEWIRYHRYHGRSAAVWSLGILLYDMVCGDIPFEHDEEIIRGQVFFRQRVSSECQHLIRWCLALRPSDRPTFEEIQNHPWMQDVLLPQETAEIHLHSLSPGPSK
Protocol: ADP-Glo^TM kinase assay kit was used to evaluate Pim1 kinase inhibition purchased from Promega Corporation, Madison, WI. At each of the kit low-volume well, the tested compounds were dissolved in DMSO at each of the tested concentration range and 1 µL was withdrawn and mixed with 2 µL Pim1 kinase and 2 µL of substrate/ATP mix then incubated at room temperature for 60 min. 5 µL of ADP-Glo reagent was added and incubated for another 40 min at room temperature. Finally 10 µL of kinase detection reagents was added and incubated for 30 min and the luminescence was recorded. Pim1 kinase buffer was prepared by mixing 40 mM Tris at pH 7.5, 20 mM MgCl2, 0.1 mg/mL BSA and 50 µM DTT.

[1] = tested on: breast cancer T47D cell line; experiment: Breast T47D cancer cell cycle flowcytometry; assay type: cell-based
Protocol: After treatment with test compounds for 48 h and paclitaxel (1 µM) for 48 h as positive control, cells (10^5 cells) are collected by trypsinization and washed twice with ice-cold PBS (pH 7.4). Cells are re-suspended in two millilitres of 60% ice-cold ethanol and incubated at 4 °C for 1 h for fixation. Fixed cells are washed twice again with PBS (pH 7.4) and re-suspended in 1 ml of PBS containing 50 µg/mL RNAase A and 10 µg/mL propidium iodide (PI). After 20 min of incubation in dark at 37 °C, cells are analysed for DNA contents using flow cytometry analysis using FL2 (λex/em 535/617 nm) signal detector (ACEA Novocyte™ flowcytometer, ACEA Biosciences Inc., San Diego, CA). For each sample, 12,000 events are acquired. Cell cycle distribution is calculated using ACEA NovoExpress™ software (ACEA Biosciences Inc., San Diego, CA)[36].

[2] = tested on: Breast MCF10A normal cell line; experiment: Normal cell line cytotoxicity using MCF10a (MTT); assay type: cell-based, human; details: 48 h; for pIC50: Homo sapiens, MCF-10A; for Selectivity Index: MCF10A normal versus T47D cancer cells
Protocol: In vitro toxicology assay kit (MTT based) stock no. TOX-1 7H258 was purchased from SIGMA (St. Louis, MO). About 3 ml of the medium with the normal cell lines in log phase were added in multiwall plate without phenol red and serum. A volume of reconstituted MTT (#M-5655) equivalent to 10% of the culture medium volume was added then incubated for 2 h. The resulted fomazan crystals were dissolved with occasional shaking by equivalent volume of MTT solubilising solution (#M-8910). The final solution absorbance was measured spectrophotometry at wavelength 570 nm. Blank experiment was performed using medium only without cells.

[3] = Calculation of the lethal dose 50 (LD50), fixed-dose approach; details: male, Swiss albino, mouse, in vivo, ip, mice, single dose
Protocol: The LD50 of compounds 3b and 8b were determined using a fixed-dose approach; 12 male Swiss albino mice were divided into four groups (three mice per group) to calculate the LD50. […]. By giving these concentrations once to the animals and monitoring the signs of poisoning and deaths within 24 h, the lethal dose was identified. The animals were monitored continuously for the first two hours and then every four hours after that. After 24 h, all of animal deaths and survival appeared. […]. […] The dose used in the experiment was 1/10 from the LD50.

Ehrlich solid carcinoma = experiment: In vivo cytotoxicity study, Ehrlich solid carcinoma model; set-up: species or system male Swiss albino mice; details: i.p. once weekly for 3 weeks; for Histopathological examination of Ehrlich solid tumour (H&E): mice; for TNF-α level (ELISA) / malondialdehyde (MDA) level (ELISA): serum, Ehrlich solid tumour mice
Protocol: The National Cancer Institute (Cairo, Egypt) provided the 48 male Swiss albino mice utilised in this study, which ranged in weight from 25 to 30 g. Prior to the experiment, mice were given a week to settle into their new environment. A constant 23 °C temperature, 60% humidity, and a 12/12 light/dark cycle were maintained in stainless steel cages. Each cage housed five mice with a plenty of nourishing food and refreshing water were served. This in vivo study was approved from the ethical committee of the Azhar University, Faculty of Medicine, Egypt.
A female mouse with an 8-day-old ascetic tumour was obtained from the National Cancer Institute on the day of induction, and Ehrlich ascites carcinoma (EAC) cells were isolated from the ascetic fluid of the animal (day 0). Then, regular saline was used to dilute the ascetic fluid (1:10). Each mouse received a subcutaneous injection of 0.2 ml of ascetic fluid containing 2.5 × 10^6 EAC cells in the right thigh of the hind limb to induce Ehrlich solid-phase cancer.
On day 11 following ESC inoculation, tumour formation was observed as a solid mass expanding in the right thigh of each animal. The mice were then randomly divided into four groups (n = 6) • Group (1) acted as the […] control group and mice received an i.p. DMSO (2 mg/kg/once weekly) for 3 weeks. • Group (2) (Doxorubicin Group) mice received an i.p. dose of doxorubicin (2 mg/kg/once weekly) for 3 weeks. • Group (3) mice were given an i.p. dose of 8b compound (1 mg/kg/once weekly) for 3 weeks, • Group (4) mice were given an i.p. dose of 3b compound (1.4 mg/kg/once weekly) for 3 weeks.
Two days after the last dose of therapy, blood was drawn from the mice’s orbital canthus, and serum was separated and stored at −80 °C for upcoming biochemical investigations. Following the cervical dislocation method of euthanasia, tumour samples from each mouse were collected and preserved in neutral buffered formalin at a 10% concentration for immunohistochemistry and histopathology studies. Histological preparations were performed according to the reported method. Slices of Ehrlich tumour were cut to a thickness of 3–4 mm before being fixed in 10% neutral buffered formalin (10% NBF), dehydrated through a series of ethanol solutions, cleaned in xylene, and finally embedded in paraffin. To examine the overall tissue architecture, sections ([…]) thick were cut from paraffin blocks using a microtome and stained with haematoxylin and eosin. We used a Leica microscope (CH9435 Hee56rbrugg) to look at H&E-stained tissue sections (Leica Microsystems, Switzerland).
The avidin–biotin–peroxidase complex (ABC) method was used to do immunohistochemistry on paraffin sections that were put on positively charged slides. Rabbit Anti-VEGF Receptor 2 Polyclonal Antibody (Elabscience Cat# E-AB-63481, Dil.: 1:100) and Rabbit Monoclonal anti-caspase-3 antibody, active (cleaved) form (Sigma Aldrich Catalog # AB3623)[41], were utilised during this IHC assessment. Each group’s sections were treated with the previously specified antibodies, after which the ABC technique reagents (Vectastain ABC-HRP kit, Vector labs) were applied. To locate the antigen–antibody combination, marker expression was stained with diaminobenzidine (DAB, manufactured by Sigma) and labelled with peroxidase. In order to conduct negative controls, non-immune serum was substituted for the primary or secondary antibodies. IHC-stained sections were assessed using a Leica (CH9435 Hee56sbrugg) microscope (Leica Microsystems, Switzerland).
Using one-way analysis of variance (ANOVA) followed by Tukey’s post-hoc test, the difference between experimental groups was analysed. All data are presented as mean ± standard deviation (SD). All comparisons were judged statistically significant when the p values ≤ 0.05. ImageJ (NIH Image J system, Bethesda, MD) was used for the analysis of immunohistochemistry photos.

[4] = Ehrlich solid tumour tissue, 8b 1 mg/kg, 3b 1.4 mg/kg, doxorubicin 2 mg/kg
[5] = 8b 1 mg/kg, 3b 1.4 mg/kg, doxorubicin 2 mg/kg

For `Fc1ccc(-c2csc(Nc3cccc(Nc4nc(-c5ccc(F)cc5)cs4)c3)n2)cc1` [6b, N^1,N^3-bis(4–(4-fluorophenyl)thiazol-2-yl)benzene-1,3-diamine], the pIC50 (Pim1 kinase) was 5.53.
For `Fc1ccc(-c2cs/c(=N\c3ccccc3)n2-c2cccc(-n3c(-c4ccc(F)cc4)cs/c3=N\c3ccccc3)c2)cc1` [8b, N,N’-(3,3’-(1,3-phenylene)bis(4–(4-fluorophenyl)thiazole-3(3H)-yl-2(3H)-ylidene))dianiline], the pIC50 (Pim1 kinase) was 6.62, the “Percentage of breast T47D cells, G0/G1 Phase” value ([1]; 48 h incubation) was 51.7% and the “Percentage of breast T47D cells, G2 Phase” value ([1]; 48 h incubation) was 25.9%. The “Percentage of breast T47D cells, Pre G1 Phase” value ([1]; 48 h incubation) was 1.9%, the “Percentage of breast T47D cells, S Phase” value ([1]; 48 h incubation) was 26.5% and the “S phase cells higher than the control by” value ([1]; relative to untreated control) was 77.8%. For the same compound, the pIC50 [2] was 4.27, the “Selectivity Index” value [2] was 5.44 and the LD50 at 24 h [3] was 10 mg/kg. For the same compound, the “VEGF expression by immunohistochemistry” value (Ehrlich solid carcinoma; [4]) was “low expression of VEGF; also recorded: no appreciable VEGF immunoreactivity; also recorded: down-regulation of VEGF”, the “caspase-3 expression by immunohistochemistry” value (Ehrlich solid carcinoma; [4]) was “highest significant increment in caspase-3 expression; also recorded: significant positive expression of caspase-3; also recorded: up-regulation of caspase-3” and the “Histopathological examination of Ehrlich solid tumour (H&E)” value (Ehrlich solid carcinoma; [5]) was “minimal infiltration of neoplastic cells and a significant reduction in their quantity; also recorded: inhibited the growth of Ehrlich solid tumours in mice”. The “TNF-α level (ELISA)” value (Ehrlich solid carcinoma) was “no statistical significant difference between DOX and 8b; also recorded: down-regulation of VEGF and TNF α” and the “malondialdehyde (MDA) level (ELISA)” value (Ehrlich solid carcinoma) was “elevation of malondialdehyde levels”.
For `CC(=O)c1sc(Nc2cccc(Nc3nc(C)c(C(C)=O)s3)c2)nc1C` [3b, 1,1’-(2,2’-(1,3-Phenylenebis(azanediyl))bis(4-methylthiazole-5,2-diyl))diethanone], the pIC50 (Pim1 kinase) was 6.49, the “Percentage of breast T47D cells, G0/G1 Phase” value ([1]; 48 h incubation) was 66.5% and the “Percentage of breast T47D cells, Pre G1 Phase” value ([1]; 48 h incubation) was 2.6%. For the same compound, the “Percentage of breast T47D cells, S Phase” value ([1]; 48 h incubation) was 18.7%, the “G2 phase cells lower than the control by” value ([1]; relative to untreated control) was 58% and the “pre-G1 phase cells higher than the untreated control by” value ([1]; relative to untreated control) was 78%. The pIC50 [2] was 3.98, the “Selectivity Index” value [2] was 18.25 and the LD50 at 24 h [3] was 14 mg/kg. The “VEGF expression by immunohistochemistry” value (Ehrlich solid carcinoma; [4]) was “moderate to low expression of VEGF; also recorded: moderate VEGF positivity; also recorded: down-regulation of VEGF”, the “Histopathological examination of Ehrlich solid tumour (H&E)” value (Ehrlich solid carcinoma; [5]) was “substantial number of aggregated neoplastic cells with their typical structure were surrounded by small patches of necrotic muscle tissue; also recorded: aggregates of neoplastic cells with their typical structure that surrounded by small patches of necrotic muscle tissue” and the “TNF-α level (ELISA)” value (Ehrlich solid carcinoma) was “no statistical difference was detected between compounds 8b and 3b; also recorded: down-regulation of VEGF and TNF α”. For the same compound, the “malondialdehyde (MDA) level (ELISA)” value (Ehrlich solid carcinoma) was “did not significantly vary from the untreated control group”.
Work on `c1ccc(-c2csc(Nc3cccc(Nc4nc(-c5ccccc5)cs4)c3)n2)cc1` [6a, N^1,N^3-bis(4-phenylthiazol-2-yl)benzene-1,3-diamine] yielded a pIC50 (Pim1 kinase) of 5.69.
